Test system: MIA PaCa-2
Protocol: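 MIA PaCa-2 Tet-on shOFD1 pancreatic cancer cells (2000 cells/well, 96-well) were treated with Selleck FDA-approved library compounds at 0, 1, 5, 10, 25 and 50 µM, with extra concentrations added where needed, for 72 h at 37 °C. Knockdown wells also received 100 ng/mL doxycycline; control wells received DMSO without doxycycline. Viability was read by CCK-8 absorbance at 450 nm and normalised to DMSO control wells. IC50 was fitted in GraphPad Prism as a 4-parameter logistic with bottom fixed at 0 and top fixed at 1; at least 3 technical replicate wells per condition.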

[1] = OFD1 knockdown: no (no doxycycline)
[2] = OFD1 knockdown: yes (Tet-on shOFD1, 100 ng/mL doxycycline)

Row | Structure (SMILES) | IC50 cell viability [1] [µM] | IC50 cell viability [2] [µM]
1 | COc1cccc2c1C(=O)c1c(O)c3c(c(O)c1C2=O)CC(O)(C(=O)CO)CC3OC1CC(N)C(O)C(C)O1 (stereo unspecified) [S1208] | 1.85 | 1.52
2 | COc1cccc2c1C(=O)c1c(O)c3c(c(O)c1C2=O)C[C@@](O)(C(C)=O)C[C@@H]3O[C@H]1C[C@H](N)[C@H](O)[C@H](C)O1 [S3035] | 3.36 | 3.39
3 | Cc1ccc(-c2cc(C(F)(F)F)nn2-c2ccc(S(N)(=O)=O)cc2)cc1 [S1261] | 25.2 | 24.3
4 | CN1CC(=O)N2[C@H](c3ccc4c(c3)OCO4)c3[nH]c4ccccc4c3C[C@@H]2C1=O [S1512] | 23.7 | 23.5
5 | O=C1c2c(O)ccc(O)c2C(=O)c2c(NCCNCCO)ccc(NCCNCCO)c21 [S2485] | 3.55 | 3.77
6 | CC#C[C@]1(O)CC[C@H]2[C@@H]3CCC4=CC(=O)CCC4=C3[C@@H](c3ccc(N(C)C)cc3)C[C@@]21C [S2606] | 9.08 | 8.71
7 | CC(O)(CS(=O)(=O)c1ccc(F)cc1)C(=O)Nc1ccc(C#N)c(C(F)(F)F)c1 (stereo unspecified) [S1190] | 53.5 | 45.6
8 | Nc1nc(Cl)nc2c1ncn2[C@@H]1O[C@H](CO)[C@@H](O)[C@@H]1F [S1218] | 0.55 | 0.53
9 | O=C(CCCCCCC(=O)Nc1ccccc1)NO [S1047] | 5.55 | 5.13
10 | CC1(COc2ccc3c(c2)ncn3-c2ccc3cccc(N4CCC(N)CC4)c3n2)COC1 [S2730] | 13.2 | 12.9
11 | CCN(CC)C(=O)/C(C#N)=C/c1cc(O)c(O)c([N+](=O)[O-])c1 [S3147] | 3.57 | 3.44
12 | C=CC(=O)N1CCC[C@@H](n2nc(-c3ccc(Oc4ccccc4)cc3)c3c(N)ncnc32)C1 [S2680] | 53.1 | 52.4
13 | Cc1cn(-c2cc(NC(=O)c3ccc(C)c(Nc4nccc(-c5cccnc5)n4)c3)cc(C(F)(F)F)c2)cn1 [S1033] | 18.9 | 17.3
14 | O=C(O)c1ccc2c(c1)nc(Nc1cccc(Cl)c1)c1ccncc12 [S2248] | 4.02 | 3.69
15 | COC(=O)c1ccc2c(C(=Nc3ccc(N(C)C(=O)CN4CCN(C)CC4)cc3)c3ccccc3)c(O)[nH]c2c1 [S1010] | 4.96 | 4.24
16 | COCC[n+]1c2c(n(Cc3cnccn3)c1C)C(=O)c1ccccc1C2=O [S1130] | 0.82 | 0.92
17 | COc1nc(C)cnc1NS(=O)(=O)c1cccnc1-c1ccc(-c2nnco2)cc1 [S1456] | 70.2 | 64.3
18 | O=C(Nc1c(Cl)cncc1Cl)c1ccc(OC(F)F)c(OCC2CC2)c1 [S2131] | 22 | 20
19 | CC(C)(C#N)c1cc(Cn2cncn2)cc(C(C)(C)C#N)c1 [S1188] | 47.1 | 59.2
20 | CCN(CCO)CCCOc1ccc2c(Nc3cc(CC(=O)Nc4cccc(F)c4)[nH]n3)ncnc2c1 [S1147] | 16.7 | 15.1

Row | Structure (SMILES) | IC50 cell viability [1] [µM] | IC50 cell viability [2] [µM]
21 | N#CC[C@H](C1CCCC1)n1cc(-c2ncnc3[nH]ccc23)cn1 [S1378] | 70.3 | 68.4
22 | Nc1nc(F)nc2c1ncn2[C@@H]1O[C@H](COP(=O)(O)O)[C@@H](O)[C@@H]1O [S1229] | 2.26 | 1.95
23 | Cc1c(N)nc(C(CC(N)=O)NCC(N)C(N)=O)nc1C(=O)NC(C(=O)NC(C)C(O)C(C)C(=O)NC(C(=O)NCCc1nc(-c2nc(C(=O)NCCC[S+](C)C)cs2)cs1)C(C)O)C(O[C@@H]1O[C@@H](CO)[C@@H](O)[C@H](O)[C@@H]1O[C@H]1O[C@H](CO)[C@@H](O)[C@H](OC(N)=O)[C@@H]1O)c1cnc[nH]1 (stereo partly specified) [S1214] | 1.84 | 1.69
24 | CCCCc1nc2cc(/C=C/C(=O)NO)ccc2n1CCN(CC)CC [S1515] | 5.47 | 5.05
25 | CC(=O)O[C@@]12CO[C@@H]1C[C@H](O)[C@@]1(C)C(=O)[C@H](O)C3=C(C)[C@@H](OC(=O)[C@H](O)[C@@H](NC(=O)OC(C)(C)C)c4ccccc4)C[C@@](O)([C@@H](OC(=O)c4ccccc4)[C@H]21)C3(C)C [S1148] | 0.39 | 0.34
26 | COc1cc2nccc(Oc3ccc(NC(=O)C4(C(=O)Nc5ccc(F)cc5)CC4)cc3)c2cc1OC [S4001] | 5.3 | 4.97
27 | Cc1ccc(C(=O)Nc2ccc(CN3CCN(C)CC3)c(C(F)(F)F)c2)cc1C#Cc1cnc2cccnn12 [S1490] | 3.75 | 3.86
28 | C[C@]12C=CC(=O)N[C@@H]1CC[C@@H]1[C@@H]2CC[C@]2(C)[C@@H](C(=O)Nc3cc(C(F)(F)F)ccc3C(F)(F)F)CC[C@@H]12 [S1202] | 2.38 | 2.28
29 | C#Cc1cccc(Nc2ncnc3cc(OC)c(OCCCCCCC(=O)NO)cc23)c1 [S1194] | 1.35 | 1.14
30 | CN(N=O)C(=O)NC1C(O)OC(CO)C(O)C1O (stereo unspecified) [S1312] | 30.1 | 30.4
31 | O=c1[nH]c(=O)n([C@H]2C[C@H](O)[C@@H](CO)O2)cc1F [S1299] | 11.5 | 11.4
32 | CNC(=O)c1ccccc1Sc1ccc2c(/C=C/c3ccccn3)n[nH]c2c1 [S1005] | 38.7 | 43.9
33 | C[C@]12CCC(=O)C(O)=C1CC[C@@H]1[C@@H]2CC[C@]2(C)C(=O)CC[C@@H]12 [S2208] | 11 | 10.4
34 | C[C@]12CC[C@@H]3c4ccc(O)cc4CC[C@H]3[C@@H]1CC[C@@H]2O [S1709] | 18 | 18.8
35 | CCOc1ccc(Cc2cc([C@@H]3O[C@H](CO)[C@@H](O)[C@H](O)[C@H]3O)ccc2Cl)cc1 [S1548] | 16.5 | 17
36 | C[C@]12CC[C@@H]3c4ccc(O)cc4C[C@@H](CCCCCCCCC[S+]([O-])CCCC(F)(F)C(F)(F)F)[C@H]3[C@@H]1CC[C@@H]2O (stereo partly specified) [S1191] | 25.6 | 24.5
37 | O=c1[nH]cc(F)c(=O)[nH]1 [S1209] | 3.34 | 2.54
38 | Cn1nnc2c(C(N)=O)ncn2c1=O [S1237] | 12 | 11.3
39 | O=c1sn(-c2cccc3ccccc23)c(=O)n1Cc1ccccc1 [S2823] | 17.9 | 17.7
40 | CCC(C)(C)C(=O)O[C@H]1C[C@@H](C)C=C2C=C[C@H](C)[C@H](CC[C@@H]3C[C@@H](O)CC(=O)O3)[C@H]21 [S1792] | 26.2 | 25

Row | Structure (SMILES) | IC50 cell viability [1] [µM] | IC50 cell viability [2] [µM]
41 | CS(=O)(=O)CCNCc1ccc(-c2ccc3ncnc(Nc4ccc(OCc5cccc(F)c5)c(Cl)c4)c3c2)o1 [S1028] | 16.8 | 15
42 | CC(=O)OCC(=O)[C@@]1(O)[C@H](C)C[C@H]2[C@@H]3CCC4=CC(=O)C=C[C@]4(C)[C@@]3(F)[C@@H](O)C[C@@]21C [S3124] | 51.2 | 49.6
43 | CO[C@H]1C[C@@H]2CC[C@@H](C)[C@@](O)(O2)C(=O)C(=O)N2CCCC[C@H]2C(=O)O[C@H]([C@H](C)C[C@@H]2CC[C@@H](O)[C@H](OC)C2)CC(=O)[C@H](C)/C=C(\C)[C@@H](O)[C@@H](OC)C(=O)[C@H](C)C[C@H](C)/C=C/C=C/C=C/1C [S1039] | 0.56 | 0.54
44 | O=NN(CCCl)C(=O)NC1CCCCC1 [S1840] | 18.8 | 16.9
45 | C[C@]1(c2nc3c(C(N)=O)cccc3[nH]2)CCCN1 [S1004] | 77 | 44.1
46 | COc1ncc(-c2ccc3nccc(-c4ccnnc4)c3c2)cc1NS(=O)(=O)c1ccc(F)cc1F [S2658] | 8.98 | 8.74
47 | O=C1[C@H](CC[C@H](O)c2ccc(F)cc2)[C@@H](c2ccc(O)cc2)N1c1ccc(F)cc1 [S1655] | 3.33 | 3.62
48 | Cn1cc(C2=C(c3cn(C4CCN(Cc5ccccn5)CC4)c4ccccc34)C(=O)NC2=O)c2ccccc21 [S1055] | 13.8 | 12.5
49 | CN1CCN(c2nc(C3=C(c4c[nH]c5ccccc45)C(=O)NC3=O)c3ccccc3n2)CC1 [S2791] | 22.1 | 20.1
50 | CCCS(=O)(=O)Nc1ccc(F)c(C(=O)c2c[nH]c3ncc(-c4ccc(Cl)cc4)cc23)c1F [S1267] | 17 | 17.6
51 | CCC1=C[C@@H]2CN(C1)Cc1c([nH]c3ccccc13)[C@@](C(=O)OC)(c1cc3c(cc1OC)N(C)[C@H]1[C@@](O)(C(=O)OC)[C@H](OC(C)=O)[C@]4(CC)C=CCN5CC[C@]31[C@@H]54)C2 [S4269] | 3.46 | 3.12
52 | Nc1ncn([C@@H]2O[C@H](CO)[C@@H](O)[C@H]2O)c(=O)n1 [S1782] | 12.6 | 10.7
53 | Nc1ccc(C(=O)O)c(O)c1 [S4073] | 8.25 | 7.73
54 | CC[C@H](Nc1ncnc2[nH]cnc12)c1nc2cccc(F)c2c(=O)n1-c1ccccc1 [S2226] | 22.7 | 24.4
55 | C[C@]12CCC(=O)C=C1CC[C@@H]1[C@@H]2[C@@H](O)C[C@@]2(C)[C@H]1CC[C@]2(O)C(=O)CO [S1696] | 57.9 | 53.4
56 | CS(=O)(=O)OCCCCOS(C)(=O)=O [S1692] | 11.6 | 12.1
57 | N#Cc1ccc(C(c2ccc(C#N)cc2)n2cncn2)cc1 [S1235] | 12.5 | 12.4
58 | CNC(=O)c1cc(Oc2ccc(NC(=O)Nc3ccc(Cl)c(C(F)(F)F)c3)cc2)ccn1 [S1040] | 8.15 | 7.5

— the supplement of paper PMC12325586
